# The source made the active and inactive calls. The calls are words filed in the database; no cut-off is given here.
# Legend:
# NB-4 [1] = assay: Cytotoxicity against human NB4 cells after 24 hrs by MTT assay; format: functional, cell-based; conditions: NB-4, 24 h
# HeLa = assay: Cytotoxicity against human HeLa cells after 24 hrs by MTT assay; format: functional, cell-based
# SGC-7901 [2] = assay: Cytotoxicity against human SGC7901 cells after 24 hrs by MTT assay; format: functional, cell-based; conditions: SGC-7901, 24 h
# NB-4 [3] = assay: Cytotoxicity against human NB4 cells after 48 hrs by MTT assay; format: functional, cell-based; conditions: NB-4, 48 h
# HL-60 = assay: Cytotoxicity against human HL60 cells after 48 hrs by MTT assay; format: functional, cell-based; conditions: HL-60, 48 h
# SGC-7901 [4] = assay: Cytotoxicity against human SGC7901 cells after 48 hrs by MTT assay; format: functional, cell-based; conditions: SGC-7901, 48 h
# NB-4 [5] = assay: Induction of mitochondrial membrane potential loss in human NB4 cells at 0.6 uM after 1 hr by JC1 staining based flow cytometry (reference value: 27.7%); format: functional
# NB-4 [6] = assay: Induction of mitochondrial membrane potential loss in human NB4 cells at 0.6 uM after 6 hrs by JC1 staining based flow cytometry (reference value: 27.7%); format: functional
# NB-4 [7] = assay: Induction of ROS generation in human NB4 cells at 0.6 uM after 1 to 6 hrs by DCFH-DA staining based flow cytometry; format: functional, cell-based
# NB-4 [8] = assay: Cytotoxicity against human NB4 cells assessed as reduction in cell viability up to 2.4 uM up to 8 hrs by MTT assay; format: functional, cell-based
# NB-4 [9] = assay: Cytotoxicity against human NB4 cells assessed as reduction in cell viability at 1.2 uM after 24 hrs in presence of PDHC-E2 co-enzyme LA by trypan blue assay; format: functional, cell-based
# NB-4 [10] = assay: Cytotoxicity against human NB4 cells assessed as reduction in cell viability at 1 to 1.2 uM after 24 hrs in presence of DTT by trypan blue assay; format: functional, cell-based
# NB-4 [11] = assay: Cytotoxicity against human NB4 cells assessed as reduction in cell viability at 1 to 1.2 uM after 24 hrs in presence of DMP by trypan blue assay; format: functional, cell-based
# NB-4 [12] = assay: Induction of mitochondrial membrane potential loss in human NB4 cells assessed as decrease in intracellular ATP level at 0.6 to 1.2 uM after 24 hrs; format: functional, cell-based
# NB-4 [13] = assay: Induction of mitochondrial membrane potential loss in human NB4 cells at 0.3 to 2.4 uM after 24 hrs by JC-1 staining based confocal microscopic method; format: functional, cell-based
# Rattus norvegicus [14] = organism: Rattus norvegicus; assay: Induction of mitochondrial membrane potential loss in isolated Wistar rat mitochondria assessed as stationary increase phase rate constant at 50 uM using pyruvate as substrate up to 3 hrs by microcalorimetry; format: functional
# Rattus norvegicus [15] = organism: Rattus norvegicus; assay: Induction of mitochondrial membrane potential loss in isolated Wistar rat mitochondria assessed as stationary increase phase rate constant at 100 uM using pyruvate as substrate up to 3 hrs by microcalorimetry; format: functional
# Rattus norvegicus [16] = organism: Rattus norvegicus; assay: Induction of mitochondrial membrane potential loss in isolated Wistar rat mitochondria assessed as stationary increase phase rate constant at 25 uM using pyruvate as substrate up to 3 hrs by microcalorimetry (reference value: 1 to 1.18 10^-3/min); format: functional
# Rattus norvegicus [17] = organism: Rattus norvegicus; assay: Induction of mitochondrial membrane potential loss in isolated Wistar rat mitochondria assessed as maximum power output at 100 uM using pyruvate as substrate up to 3 hrs by microcalorimetry; format: functional
# Rattus norvegicus [18] = organism: Rattus norvegicus; assay: Induction of mitochondrial membrane potential loss in isolated Wistar rat mitochondria assessed as maximum power output at 25 uM using pyruvate as substrate up to 3 hrs by microcalorimetry (reference value: 141.64 to 153.92 W); format: functional
# Rattus norvegicus [19] = organism: Rattus norvegicus; assay: Induction of mitochondrial membrane potential loss in isolated Wistar rat mitochondria assessed as maximum power output time at 50 uM using pyruvate as substrate up to 3 hrs by microcalorimetry; format: functional
# Rattus norvegicus [20] = organism: Rattus norvegicus; assay: Induction of mitochondrial membrane potential loss in isolated Wistar rat mitochondria assessed as maximum power output time at 100 uM using pyruvate as substrate up to 3 hrs by microcalorimetry; format: functional
# Rattus norvegicus [21] = organism: Rattus norvegicus; assay: Induction of mitochondrial membrane potential loss in isolated Wistar rat mitochondria assessed as maximum power output time at 25 uM using pyruvate as substrate up to 3 hrs by microcalorimetry (reference value: 45.07 to 49.89 hrs); format: functional
# Rattus norvegicus [22] = organism: Rattus norvegicus; assay: Inhibition of ETC2 in isolated Wistar rat mitochondria assessed as decrease in DCPIP/DB reagent reduction at 5 to 50 uM incubated for 3 to 5 mins and measured for up to 3 mins
# Rattus norvegicus [23] = organism: Rattus norvegicus; assay: Inhibition of ETC3 in isolated Wistar rat mitochondria assessed as decrease in oxidized cyochrome-c reduction at 50 uM incubated for 3 to 5 mins and measured for up to 3 mins
# NB-4 [24] = assay: Induction of ROS generation in human NB4 cells up to 1.2 uM up to 24 hrs by DHE staining based flow cytometry; format: functional, cell-based
# NB-4 [25] = assay: Induction of decrease in intracellular total thiols level in human NB4 cells up to 1.2 uM up to 24 hrs; format: functional, cell-based
# NB-4 [26] = assay: Reduction in cell viability in human NB4 cells up to 2.4 uM up to 24 hrs by MTT assay; format: functional, cell-based
# Rattus norvegicus [27] = organism: Rattus norvegicus; assay: Induction of mitochondrial swelling in isolated Wistar rat mitochondria at 30 uM in presence of cyclosporin-A; format: functional
# Rattus norvegicus [28] = organism: Rattus norvegicus; assay: Induction of inner mitochondrial membrane permeabilization in isolated Wistar rat mitochondria assessed as K+ permeabilization at 5 to 75 uM measured for 10 to 30 mins; format: functional
# Rattus norvegicus [29] = organism: Rattus norvegicus; assay: Induction of mitochondrial membrane permeability in isolated Wistar rat mitochondria at 50 uM for 30 mins by TEM analysis; format: functional
# NB-4 [30] = assay: Induction of cytochrome-c release in human NB4 cells after 24 hrs by ELISA; format: functional, cell-based
# NB-4 [31] = assay: Induction of apoptosis in human NB4 cells assessed as early apoptotic cells after 24 hrs by Annexin V-FITC/propidium iodide staining based flow cytometry (reference value: 5%); format: functional
# NB-4 [32] = assay: Induction of apoptosis in human NB4 cells assessed as DNA fragmentation at 0.6 to 1.2 uM after 24 hrs by Hoechst 33342/propidium iodide staining based confocal microscopic method; format: functional, cell-based
# NB-4 [33] = assay: Induction of apoptosis in human NB4 cells assessed as live cells after 24 hrs by Annexin V-FITC/propidium iodide staining based flow cytometry (reference value: 92%); format: functional
# NB-4 [34] = assay: Induction of apoptosis in human NB4 cells assessed as late apoptotic cells after 24 hrs by Annexin V-FITC/propidium iodide staining based flow cytometry (reference value: 2.9%); format: functional
# NB-4 [35] = assay: Induction of apoptosis in human NB4 cells assessed as live cells after 24 hrs in presence of Z-VAD-fmk by Annexin V-FITC/propidium iodide staining based flow cytometry (reference value: 92%); format: functional
# NB-4 [36] = assay: Induction of apoptosis in human NB4 cells assessed as late apoptotic cells after 24 hrs in presence of Z-VAD-fmk by Annexin V-FITC/propidium iodide staining based flow cytometry (reference value: 2.9%); format: functional
# NB-4 [37] = assay: Induction of apoptosis in human NB4 cells assessed as necrotic cells after 24 hrs in presence of Z-VAD-fmk by Annexin V-FITC/propidium iodide staining based flow cytometry (reference value: 0.1%); format: functional
# NB-4 [38] = assay: Induction of apoptosis in human NB4 cells assessed as early apoptotic cells after 24 hrs in presence of Nec-1 by Annexin V-FITC/propidium iodide staining based flow cytometry (reference value: 5%); format: functional
compound,measurement,setting,value
O=C(CC[P+](c1ccccc1)(c1ccccc1)c1ccccc1)Nc1ccc([As]2SCCCS2)cc1.[Cl-],IC50,NB-4 [1],650 nM
same,IC50,HeLa,9050 nM
same,IC50,SGC-7901 [2],4630 nM
same,IC50,NB-4 [3],510 nM
same,IC50,HL-60,3230 nM
same,IC50,SGC-7901 [4],990 nM
same,Activity,NB-4 [5],40.9%
same,Activity,NB-4 [6],81.5%
same,Activity,NB-4 [7],inactive
same,Activity,NB-4 [8],inactive
same,Activity,NB-4 [9],inactive
same,Activity,NB-4 [10],inactive
same,Activity,NB-4 [11],inactive
same,Activity,NB-4 [12],Active
same,Activity,NB-4 [13],Active
same,K,Rattus norvegicus [14],0.46 ×10⁻³ /min
same,K,Rattus norvegicus [15],0.41 ×10⁻³ /min
same,K,Rattus norvegicus [16],0.72 ×10⁻³ /min
same,Activity,Rattus norvegicus [17],112 W
same,Activity,Rattus norvegicus [18],152 W
same,TIME,Rattus norvegicus [19],47.6 h
same,TIME,Rattus norvegicus [20],51.8 h
same,TIME,Rattus norvegicus [21],45.4 h
same,inhibition,Rattus norvegicus [22],inactive
same,inhibition,Rattus norvegicus [23],Active
same,Activity,NB-4 [24],Active
same,Activity,NB-4 [25],Active
same,Activity,NB-4 [26],Active
same,Activity,Rattus norvegicus [27],inactive
same,Activity,Rattus norvegicus [28],Active
same,Activity,Rattus norvegicus [29],Active
same,Activity,NB-4 [30],Dose-dependent effect
same,Activity,NB-4 [31],13.1%
same,Activity,NB-4 [32],Active
same,Activity,NB-4 [33],69.3%
same,Activity,NB-4 [34],16.2%
same,Activity,NB-4 [35],81.9%
same,Activity,NB-4 [36],5.2%
same,Activity,NB-4 [37],0.2%
same,Activity,NB-4 [38],11.6%
